Laboratory results as given in ChEMBL document CHEMBL1156578, “Countercurrent separation of natural products” (J Nat Prod, 2008).

What was measured:
[1] = Octanol-water partition coefficient, log KOW in heptane-ethyl alcohol-water (4:1:4); format: physicochemical
[2] = Partition coefficient, log K in n-butyl alcohol-ethyl acetate-water by shake flask method (1:4:5); format: physicochemical
[3] = Partition coefficient, log K in n-hexane-ethyl acetate-ethyl alcohol-water (5:5:3:7); format: physicochemical
[4] = Partition coefficient, log K in n-hexane-ethyl acetate-ethyl alcohol-water (3:7:3:7); format: physicochemical
[5] = Partition coefficient, log K in n-hexane-ethyl acetate-ethyl alcohol-water (3:7:1:9); format: physicochemical
[6] = Partition coefficient, log K in n-hexane-ethyl acetate-ethyl alcohol-water (1:9:1:9); format: physicochemical
[7] = Partition coefficient, K in n-butyl alcohol-ethyl acetate-water by shake flask method (2:3:5)

log K [1]	log K [2]	log K [3]	log K [4]	log K [5]	log K [6]	K [7]	Structure (SMILES)
1.51							CCNC(=O)c1ccccc1
1.56							COc1ccc(/C=C/C(=O)O)cc1OC [O,O'-DIMETHYLCAFFEIC ACID]
	3.87	0.099	0.246	0.312	0.799	6.25	COc1ccc([C@@H]2OC[C@H]3[C@@H]2CO[C@@H]3c2ccc(O[C@@H]3O[C@H](CO)[C@@H](O)[C@H](O)[C@H]3O)c(OC)c2)cc1OC [PHILLYRIN]
